Data on one molecule can be found in US20040067565A1, “Selective functionalization of hydrocarbons with isolated oxygenases and mediator based regeneration” (priority 2002, published 2004).

Marks after values point to notes of the source that are not given here.

The target in assay [1] is monooxygenase component of styrene monooxygenase (StyA) (Pseudomonas sp, UniProt O50214). As to the kind of experiment: [Cp*Rh(bpy)(H2O)]2+ driven, StyA-catalyzed epoxidation / sulfoxidation. In kind it is biochemical. As for the experimental part: In a typical experimental setup 1 ml total volume was placed in an Eppendorf cup in a Thermomixer. The temperature was set to 37° C. and the reaction mixture was shaken thoroughly to ensure O2 intake.
Product formation was followed by reversed phase HPLC. The HPLC system (Merck) consisted of a D-7000 controller, L-7200 autosampler, L-7400 UV detector, L-7100 liquid chromatography pump and was fitted with a CC250/4 Nucleosil 100-5 C18 HD column. Samples were eluted under isocratic conditions using 60% acetonitrile and 40% water at a flow rate of 1 ml×min^−1. The elution pattern was monitored at 210 nm.
0.2 mM [Cp*Rh(bpy)(H2O)]^2+, 0.05 mM FAD, 0.005 mM FMN, 2 mM styrene, 280 U catalase, and 1.16 μM StyA in 50 mM potassium phosphate buffer with 150 mM sodium formate were incubated at 37° C. and agitation at 1500 rpm. At intervals, reactions were stopped by addition of one equivalent volume of cold acetonitrile. After centrifugation (15 min at 4° C. and 23000×g the upper phase was analyzed by reverse phase HPLC. Concentrations were corrected according to the phase ratio after centrifugation. Results from this experiment are given in FIG. 10 and Table 3.
0.2 mM [Cp*Rh(bpy)(H2O)]^2+, 0.02 mM FAD, 2 mM substrate, 200 U catalase, and 1.47 μM StyA in 50 mM potassium phosphate buffer with 150 mM sodium formate were incubated at 37° C. and agitation at 1500 rpm.
Styrene oxide was analyzed using a CC200/4 Nucleodex α-PM (Machery-Nagel). As eluent 60% methanol and 40% 6.2 mM TEAA in water was used at a flow rate of 0.7 ml×min^−1. 1,2-Dihydronaphthalene oxide, trans-β-Methylstyrene oxide, indene oxide, and methyl phenyl sulfoxide were extracted from the reaction buffer with one aliquot hexane und analyzed unsing normal phase HPLC with a CHIRACEL OB—H column and hexane:isopropanol 95:5 (9:1 for methyl phenyl sulfoxide) at a flow rate of 0.5 ml*min^−1 as mobile phase. As reference either authentical samples of racemic epoxides were used. (Table 4). […]

For assay [2], the system named is 2-hydroxybiphenyl-3-monooxygenase (HbpA, E.C. 1.14.13.44). Nature of the assay: Residual HbpA activity while incubation with [Cp*Rh(bpy)(H2O)]2+. In kind it is biochemical. On the procedure: HbpA-activities were determined by UV-spectroscopy according to literature methods by supplementing the experiment buffer with 0.1 mM NADH and observation of NADH-depletion at 340 nm for 1 minute, afterwards 2 mM of 2-hydroxybiphenyl were added and NADH depletion was measured for 1 minute. HbpA activity was determined as difference of both rates.
In a first experiment 0.11 U*ml^−1 HbpA of a partially enriched crude extract from recombinant E. coli overexpressing HbpA was incubated at 30° C. with 0, 0.02, 0.04, and 0.1 mM [Cp*Rh(bpy)(H2O)]^2+. In a second experiment c[Cp*Rh(bpy)(H2O)]^2+) was maintained at 0.02 mM whereas the HbpA content varied form 0.22 U*ml^−1 to 1.52 U*ml^−1.

Assay [3] in a line: [Cp*Rh(bpy)(H2O)]2+ catalyzed reduction of FAD leading to hydrogen peroxide. On the procedure:
Hydrogen peroxide was determined enzymatically, based on the method by Saito et al.. Samples were mixed with a solution of 0.6 mM 4-amino antipyrine, 9 mM phenol, and 6 U×ml^−1 peroxidase from Coprinus cinereus. After one minute incubation at room temperature the absorption at 550 nm was measured.
0.2 mM [Cp*Rh(bpy)(H2O)]^2+, 0.05 mM FAD, and 1.16 μM StyA in. 50 mM potassium phosphate buffer with 150 mM sodium formate were incubated at 37° C. and agitation at 1500 rpm. At intervals samples were taken and analyzed for their hydrogen peroxide concentration. From the results a catalytic performance of 48 turnovers per hour for [Cp*Rh(bpy)(H2O)]^2+ was calculated.
In a second experiments a reaction mixture of this composition was supplemented with 2 mM styrene. After 15 min the reaction was stopped and analyzed for hydrogen peroxide and styrene oxide. 0.28 mM styrene oxide and […] were found at this time corresponding to an overall catalytic activity of [Cp*Rh(bpy)(H2O)]^2+ of 47 turnovers per hour.
Hydrogen peroxide produced was determined enzymatically with a modified assay by method by Saito et al.. Samples were mixed with a solution of 0.6 mM 4-amino antipyrine, 9 mM phenol, and 6 U×ml^−1 peroxidase from Coprinus cinereus. After one minute incubation at room temperature the absorption at 550 nm was measured.
0.2 mM [Cp*Rh(bpy)(H2O)]^2+, 0.225 mM FAD dissolved in O2 saturated potassium phosphate buffer were thermostated at 37° C. in an air-tight reaction vessel (O2-measurements: 2 ml, UV-measurements: 1 ml quartz kuvette). Reactions were started on addition of sodium formate stock solution (final concentration: 150 mM).
1 ml of 19 μM Cp*Rh(bpy)(H2O)]^2+ and 0-200 μM FAD in 50 mM potassium phosphate buffer (pH 7.0, c(NaHCO2)=150 mM) are placed in a 1.5 ml Eppendorf vial and incubated at 37° C. and agitation at 1500 rpm. At intervals […] samples are withdrawn and analyzed for their H2O2 content (FIG. 17).

The mark [4] stands for this setting: FIG. 10: 37 °C, 0.2 mM [Cp*Rh(bpy)(H2O)]2+, 0.05 mM FAD, 2 mM styrene, 1.16 μM StyA.
Setting [5] is: [Cp*Rh(bpy)] 0.02 mM, [HbpA] 0.22 U/ml.
Setting [6] is: [Cp*Rh(bpy)] 0.02 mM, [HbpA] 0.44 U/ml.
Where [7] appears, read: [Cp*Rh(bpy)] 0.02 mM, [HbpA] 1.52 U/ml.

Chain of monooxygenase component of styrene monooxygenase (StyA) (O50214 whole entry): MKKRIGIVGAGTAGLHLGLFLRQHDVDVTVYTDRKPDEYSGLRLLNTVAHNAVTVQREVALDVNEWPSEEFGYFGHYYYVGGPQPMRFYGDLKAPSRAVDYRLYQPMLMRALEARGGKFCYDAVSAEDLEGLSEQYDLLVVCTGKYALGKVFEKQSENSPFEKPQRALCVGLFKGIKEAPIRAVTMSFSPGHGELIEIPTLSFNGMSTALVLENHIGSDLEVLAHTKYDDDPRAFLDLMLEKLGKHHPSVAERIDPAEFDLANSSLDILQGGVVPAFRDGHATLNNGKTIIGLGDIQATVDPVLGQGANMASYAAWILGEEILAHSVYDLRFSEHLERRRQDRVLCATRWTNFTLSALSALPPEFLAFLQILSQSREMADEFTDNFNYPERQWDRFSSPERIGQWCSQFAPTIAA

Regarding `Cc1c(C)c(C)[c-](C)c1C.O.[Rh+3].c1ccc(-c2ccccn2)nc1` [[Cp*Rh(bpy)(H2O)]^2+], the “[Cp*Rh(bpy)(H2O)]2+ performance TF” value in assay [1] (setting [4]) was 11.3 h⁻¹. Also, the “[Cp*Rh(bpy)(H2O)]2+ performance TTN” value in assay [1] (setting [4]) is 5.3. Besides, in assay [1] (calculated on FADH2 generation rate determined in the absence of StyA, FIG. 10 conditions), the relative activity is reported as 16.1^c %. The “effect of incubation on HbpA enzymatic activity” value in assay [2] is recorded as “complete loss of enzymatic activity”. In addition, the “HbpA activity at t = 60 min” value in assay [2] (setting [5]) is given as 16%; in assay [2] (setting [6]) it was 42%; in assay [2] (setting [7]), 68%. Moreover, the t25% in assay [2] (setting [5]) was 39 min; in assay [2] (setting [6]), 173 min; in assay [2] (setting [7]), more than 1260 min; in assay [2] ([Hbpa] 0.11 U/ml, [Cp*Rh(bpy)] 0.02 mM, 30 °C) it was 70 min; in assay [2] ([Hbpa] 0.11 U/ml, [Cp*Rh(bpy)] 0.04 mM, 30 °C), 12 min; in assay [2] ([Hbpa] 0.11 U/ml, [Cp*Rh(bpy)] 0.1 mM, 30 °C), less than 5 min. In assay [3] (0.2 mM [Cp*Rh(bpy)(H2O)]2+, 0.05 mM FAD, 1.16 μM StyA, 150 mM sodium formate, 37 °C, no styrene), the “catalytic performance (hydrogen peroxide formation)” value was determined as 48 turnovers per hour. The “catalytic activities from initial H2O2-formation rates” value in assay [3] (37 °C, c(NaHCO2) 0.15 M, 19 μM [Cp*Rh(bpy)(H2O)]2+, 0-200 μM FAD) was found to be 69.9±2.5 catalytic cycles per hour. In addition, the “overall catalytic activity (hydrogen peroxide and styrene oxide)” value in assay [3] (as E39, supplemented with 2 mM styrene, after 15 min) came to 47 turnovers per hour.
